Patent US10450260B2, “NO- and H2S-releasing compounds” (RESEARCH FOUNDATION OF THE CITY UNIVERSITY OF NEW YORK, priority 2011, dated 2019)
Several values for one entry are separate records, joined by “and”; a condition that tells them apart may be missing. Identical values can stand only once. Like-named read-outs stand apart in the source and are kept apart here.

Tests used:
[1] = system: MCF-7 human breast cancer; test: MTT cell growth inhibition, MCF7; type: cell-based; conditions: for IC50: Homo sapiens, MCF7; for Ratio NSAID/NOSH-NSAID, MCF7: fold-enhancement in potency over the parent compound
Procedure: (§1) HT-29, SW-480 and HCT-15 human colon adenocarcinoma, MIA PaCa-2 and BxPC-3 human pancreatic cancer, LNCAP human prostate cancer, A549 human lung cancer, MCF-7 (estrogen receptor positive), MDA-MB 231 and SK-BR-3 (estrogen receptor negative) human breast cancer, and Jurkats human leukemia cell lines were obtained from American Type Tissue Collection (Manassas, Va.). All cells lines were grown as monolayers except for the Jurkats which were grown in suspension. The pancreatic and breast cancer cells were grown in Dulbecco's modified Eagle's medium, the prostate, Jurkat, SW-480 and HCT-15 colon cells were grown in RPMI 1640 medium, the lung cells were grown in F-12 and the colon HT-29 cells were grown in McCoy 5A. All media were supplemented with 10% fetal calf serum (Invitrogen, Carlsbad, Calif.) penicillin (50 U/ml), and streptomycin (50 μg/ml) (Invitrogen, Carlsbad, Calif.). Cells were seeded on culture dishes at a density of 25×10^3 cells/cm^2 and incubated at 37° C. in 5% CO2 and 90% relative humidity. Single cell suspensions were obtained by trypsinization (0.05% trypsin/EDTA), and cells were counted using a hemocytometer. Viability was determined by the trypan blue dye exclusion method.
(§2) Cell growth inhibitory effect of NOSH compounds were measured using a colorimetric MTT assay kit (Roche, Indianapolis, Ind.). Cancer cells were plated in 96-well plates at a density of 50,000 cells/well. The cells were incubated for 24 h with different concentrations of NOSH compounds. After the indicated time, 10 μl of MTT dye (3-[4,5-dimethylthiazol-2-yl]-2,5-diphenyl tetrazolium bromide, 5 mg/ml in phosphate buffered saline), was added to each well, and the plates were incubated for 2 hours at 37° C. Then, the media was aspirated, and add 100 μl of the solubilization solution (10% SDS in 0.01 M HCl) was added to each well to solubilize the formant crystals. The absorbance of the plates was measured on an ELISA reader at a wavelength of 570 nm. Each sample was performed in triplicate, and the entire experiment was repeated three times.
(§3) HT-29, SW-480 and HCT-15 human colon adenocarcinoma, MIA PaCa-2 and BxPC-3 human pancreatic cancer, LNCAP human prostate cancer, A549 and H383 human lung cancer, MCF-7, MDA-MB 231 and SK-BR-3 human breast cancer and Jurkat T cell human leukemia cell lines were obtained from American Type Tissue Collection (Manassas, Va.) All cells lines were grown as monolayers except for the Jurkat T cells which were grown as suspension culture. The pancreatic and breast cancer cells were grown in Dulbecco's modified Eagle's medium, the prostate, Jurkat, SW-480 and HCT-15 colon cells were grown in RPMI 1640 medium, the lung cells were grown in F-12 and the colon HT-29 cells were grown in McCoy 5A. All media were supplemented with 10% fetal calf serum (Invitrogen, Carlsbad, Calif.) penicillin (50 U/ml), and streptomycin (50 μg/ml) (Invitrogen, Carlsbad, Calif.). Cells were seeded on culture dishes at a density of 25×10^3 cells/cm^2 and incubated at 37° C. in 5% CO2 and 90% relative humidity. Single cell suspensions were obtained by trypsinization (0.05% trypsin/EDTA), and cells were counted using a hemacytometer. The final DMSO concentration was adjusted in all media to 1%. Viability was determined by the trypan blue dye exclusion method.
(§4) Cell growth inhibitory effect of all NOSH-NSAIDs was measured using a colorimetric MTT assay kit (Roche, Indianapolis, Ind.). Cancer cells were plated in 96-well plates at a density of 30,000-50,000 cells/well depending on cell type. The cells were incubated for 24 hours with different concentrations of NOSH-NSAIDs. After the indicated time, 10 μL of MTT dye (3-[4,5-dimethylthiazol-2-yl]-2,5-diphenyl tetrazolium bromide, 5 mg/mL in phosphate buffered saline), was added to each well, and the plates were incubated for 2 hours at 37° C. Then, the media was aspirated, and 100 μL of the solubilization solution (10% SDS in 0.01 M HCl) was added to each well to solubilize the formant crystals. […]

[2] = system: BxPC-3 human pancreatic cancer; test: MTT cell growth inhibition, BxPC3; type: cell-based; conditions: for IC50: Homo sapiens, BXPC-3, read-out: IC50 for cell growth inhibition, Pancreas BxPC3; for Ratio NSAID/NOSH-NSAID, BxPC3: fold-enhancement in potency over the parent compound
Procedure: as §1, §2, §3, §4

[3] = system: A549 human lung cancer; test: MTT cell growth inhibition, A549; type: cell-based; conditions: for IC50: Homo sapiens, A549; for Ratio NSAID/NOSH-NSAID, A549: fold-enhancement in potency over the parent compound
Procedure: as §1, §2, §3, §4

[4] = system: LNCAP human prostate cancer; test: MTT cell growth inhibition, LNCAP; type: cell-based; conditions: for IC50: Homo sapiens, LNCaP; for Ratio NSAID/NOSH-NSAID, LNCAP: fold-enhancement in potency over the parent compound
Procedure: as §1, §2, §3, §4

[5] = target: T1, ovine COX-1 (Ovis aries, UniProt P05979); test: COX-1 enzyme activity, colorimetric inhibitor screening kit; type: biochemical; conditions: for preference between COX-1 and COX-2 enzyme inhibition: ovine COX-1 vs COX-2
T1 construct: purchased Cayman Chemicals (Ann Arbor, Mich.)
T1 sequence (P05979 25-600): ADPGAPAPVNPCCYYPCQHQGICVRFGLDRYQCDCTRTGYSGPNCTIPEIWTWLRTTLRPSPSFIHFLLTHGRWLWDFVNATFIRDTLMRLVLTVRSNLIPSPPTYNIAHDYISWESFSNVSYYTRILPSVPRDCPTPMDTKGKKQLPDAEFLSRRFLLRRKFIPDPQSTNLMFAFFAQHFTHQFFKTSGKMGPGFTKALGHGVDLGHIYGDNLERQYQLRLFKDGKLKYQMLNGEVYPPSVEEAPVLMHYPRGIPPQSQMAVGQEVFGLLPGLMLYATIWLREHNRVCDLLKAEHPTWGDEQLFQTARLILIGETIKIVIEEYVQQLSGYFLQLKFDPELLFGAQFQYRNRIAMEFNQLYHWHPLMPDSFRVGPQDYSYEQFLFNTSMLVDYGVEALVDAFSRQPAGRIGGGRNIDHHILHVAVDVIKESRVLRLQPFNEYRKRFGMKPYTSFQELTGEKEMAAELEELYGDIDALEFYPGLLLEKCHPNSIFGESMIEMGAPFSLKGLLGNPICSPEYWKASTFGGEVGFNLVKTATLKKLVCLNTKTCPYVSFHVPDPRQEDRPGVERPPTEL

[6] = 24 hours, read-out: IC50 for cell growth inhibition, Lung A540
[7] = 24 hours (Table 7), read-out: IC50 for cell growth inhibition, Lung A549

Row | SMILES | IC50 ([1]; 24 hours) [µM] | IC50 ([2]; 24 hours) [µM] | IC50 [3, 6] [µM] | IC50 ([4]; 24 hours) [µM] | preference between COX-1 and COX-2 enzyme inhibition [5] | IC50 ([1]; 24 hours (Table 7)) [µM] | IC50 ([2]; 24 hours (Table 7)) [µM] | IC50 [3, 7] [µM] | IC50 ([4]; 24 hours (Table 7)) [µM] | other results
1 | O=C(CCCO[N+](=O)[O-])Oc1ccccc1C(=O)Oc1ccc(-c2cc(=S)ss2)cc1 [NOSH-1, 4-(3-thioxo-3H-1,2-dithiol-5-yl)phenyl 2-((4-(nitrooxy)butanoyl)oxy)benzoate] | 0.28 ± 0.016 | 0.057 ± 0.004 | 0.05 ± 0.007 | 0.088 ± 0.008 | preferentially inhibits COX-1 | – | – | – | – | inhibition at 0.025 µM ([5]; 25 nM (Table 6)): 8.3 ± 1%; inhibition at 0.05 µM ([5]; 50 nM (Table 6)): 45.2 ± 2%; inhibition at 0.05 µM ([5]; 50 nM (Table 8)): 52.6%; COX 1-% Inhibition ([5]; 50 nM (Table 8), listed as NOSH-ASA, 0.05 µM): 47.6%; inhibition at 0.1 µM ([5]; 100 nM (Table 6)): 69.4 ± 2.2%; inhibition at 0.1 µM ([5]; 100 nM (Table 8)): 67.9%
2 | NC(=S)c1ccc(OC(=O)c2ccccc2OC(=O)CCCO[N+](=O)[O-])cc1 [NOSH-3, 4-carbamothioylphenyl 2-((4-(nitrooxy)butanoyl)-oxy)benzoate] | 5.7 ± 0.323 | 5.5 ± 0.39 | 6.5 ± 0.224 | 4.3 ± 0.212 | – | – | – | – | – | –
3 | CC(=O)Oc1ccccc1C(=O)O [ASA, aspirin, reference compound] | – | – | – | – | – | – | – | – | – | COX-1, % Inhibition ([5]; 1 mM (Table 6)): 53.2±1.8%; COX 1-% Inhibition ([5]; 1 mM, 15 min at 4° C. (Table 8)): 84.9% and 85.9%; COX 1-% Inhibition ([5]; 3 mM (Table 8)): 86.5%
4 | CC1=C(CC(=O)O)c2cc(F)ccc2/C1=C\c1ccc([S+](C)[O-])cc1 (stereo not shown) [sulindac, reference compound] | – | – | – | – | – | 965 | 970 | 212 | 810 | inhibition at 800 µM ([5]; 800 μM (Table 8)): 84%; COX 1-% Inhibition ([5]; 800 μM (Table 8), 800 µM): 81.0%; inhibition at 1600 µM ([5]; 1600 μM (Table 8)): 89.1%
5 | O=C(CCC(=O)Oc1ccccc1C(=O)Oc1ccc(-c2cc(=S)ss2)cc1)OCCCCO[N+](=O)[O-] [NOSH-2, 4-(nitrooxy)butyl (2-((4-(3-thioxo-3H-1,2-dithiol-5-yl)phenoxy)carbonyl)phenyl) succinate] | 0.07 ± 0.005 | 0.1 ± 0.009 | 0.12 ± 0.014 | 0.1 ± 0.012 | – | – | – | – | – | –
6 | COc1ccc2cc([C@H](C)C(=O)O)ccc2c1 [naproxen, reference compound] | – | – | – | – | – | 2350 | 2450 | – | – | COX 1-% Inhibition ([5]; 3 mM (Table 8)): 80.1%; inhibition at 3000 µM ([5]; read-out: COX 1-% Inhibition, 3 mM (Table 8)): 84.7%; inhibition at 6000 µM ([5]; read-out: COX 1-% Inhibition, 6 mM (Table 8)): 91.9%
7 | CC1=C(CC(=O)Oc2ccc(OC(=O)CCCO[N+](=O)[O-])c(C(=O)Oc3ccc(-c4cc(=S)ss4)cc3)c2)c2cc(F)ccc2/C1=C/c1ccc([S+](C)[O-])cc1 (stereo not shown) [NOSH-8, (E)-4-(3-thioxo-3H-1,2-dithiol-5-yl)phenyl 5-(2-(5-fluoro-2-methyl-1-(4-(methylsulfinyl)benzylidene)-1H-inden-3-yl)acetoxy)-2-((4-(nitrooxy)butanoyl)oxy)benzoate] | – | – | – | – | preferentially inhibited COX-1 | 0.11 | 0.11 | 0.18 | 0.09 | Ratio NSAID/NOSH-NSAID, MCF7 [1]: 8,772; Ratio NSAID/NOSH-NSAID, BxPC3 [2]: 8,818; Ratio NSAID/NOSH-NSAID, A549 [3]: 1,177; Ratio NSAID/NOSH-NSAID, LNCAP [4]: 9,000; inhibition at 0.089 µM ([5]; 89 nM (Table 8)): 43.4%; COX 1-% Inhibition ([5]; 89 nM (Table 8), listed as NOSH-SULINDAC, 0.089 µM): 45.0%
8 | O=C(CCCC[C@@H]1CCSS1)Oc1ccccc1C(=O)OCCCCO[N+](=O)[O-] [NOSH-4, (R)-4-(nitrooxy)butyl 2-((5-(1,2-dithiolan-3-yl)pentanoyl)oxy)benzoate] | 0.28 ± 0.015 | 0.7 ± 0.032 | 0.3 ± 0.012 | 0.5 ± 0.018 | – | – | – | – | – | –
9 | CC(C(=O)Oc1ccc(-c2cc(=S)ss2)cc1)c1ccc2cc(OC(=O)CCCO[N+](=O)[O-])ccc2c1 (stereo not shown) [NOSH-7, 6-(1-oxo-1-(4-(3-thioxo-3H-1,2-dithiol-5-yl)phenoxy)propan-2-yl)naphthalen-2-yl 4-(nitrooxy)butanoate] | – | – | – | – | preferentially inhibited COX-1 | 0.11 | 0.08 | 0.1 | 0.13 | Ratio NSAID/NOSH-NSAID, MCF7 [1]: 21,363; Ratio NSAID/NOSH-NSAID, BxPC3 [2]: 30,625; Ratio NSAID/NOSH-NSAID, A549 [3]: 26,500; Ratio NSAID/NOSH-NSAID, LNCAP [4]: 23,000; inhibition at 0.08 µM ([5]; 80 nM (Table 8)): 42.5%; COX 1-% Inhibition ([5]; 80 nM (Table 8), listed as NOSH-NAPROXEN, 0.08 µM): 44.4%; inhibition at 0.16 µM ([5]; 160 nM (Table 8)): 52.3%
